What was measured:
[1] = target: Metabotropic glutamate receptor 5 (Rattus norvegicus, UniProt P31424); assay: Negative allosteric modulator activity at rat mGlu5 expressed in HEK293A cells assessed as reduction in glutamate-induced calcium mobilization; format: functional, cell-based, HEK293-A
[2] = target: Metabotropic glutamate receptor 5 (Rattus norvegicus) (UniProt P31424); assay: Negative allosteric modulator activity at rat mGlu5 expressed in HEK293A cells assessed as reduction in 100 uM glutamate-induced calcium mobilization at 30 uM; format: functional, cell-based; settings: HEK293-A
Chain of Metabotropic glutamate receptor 5 (Rattus norvegicus) (P31424 21-1203 limits assumed): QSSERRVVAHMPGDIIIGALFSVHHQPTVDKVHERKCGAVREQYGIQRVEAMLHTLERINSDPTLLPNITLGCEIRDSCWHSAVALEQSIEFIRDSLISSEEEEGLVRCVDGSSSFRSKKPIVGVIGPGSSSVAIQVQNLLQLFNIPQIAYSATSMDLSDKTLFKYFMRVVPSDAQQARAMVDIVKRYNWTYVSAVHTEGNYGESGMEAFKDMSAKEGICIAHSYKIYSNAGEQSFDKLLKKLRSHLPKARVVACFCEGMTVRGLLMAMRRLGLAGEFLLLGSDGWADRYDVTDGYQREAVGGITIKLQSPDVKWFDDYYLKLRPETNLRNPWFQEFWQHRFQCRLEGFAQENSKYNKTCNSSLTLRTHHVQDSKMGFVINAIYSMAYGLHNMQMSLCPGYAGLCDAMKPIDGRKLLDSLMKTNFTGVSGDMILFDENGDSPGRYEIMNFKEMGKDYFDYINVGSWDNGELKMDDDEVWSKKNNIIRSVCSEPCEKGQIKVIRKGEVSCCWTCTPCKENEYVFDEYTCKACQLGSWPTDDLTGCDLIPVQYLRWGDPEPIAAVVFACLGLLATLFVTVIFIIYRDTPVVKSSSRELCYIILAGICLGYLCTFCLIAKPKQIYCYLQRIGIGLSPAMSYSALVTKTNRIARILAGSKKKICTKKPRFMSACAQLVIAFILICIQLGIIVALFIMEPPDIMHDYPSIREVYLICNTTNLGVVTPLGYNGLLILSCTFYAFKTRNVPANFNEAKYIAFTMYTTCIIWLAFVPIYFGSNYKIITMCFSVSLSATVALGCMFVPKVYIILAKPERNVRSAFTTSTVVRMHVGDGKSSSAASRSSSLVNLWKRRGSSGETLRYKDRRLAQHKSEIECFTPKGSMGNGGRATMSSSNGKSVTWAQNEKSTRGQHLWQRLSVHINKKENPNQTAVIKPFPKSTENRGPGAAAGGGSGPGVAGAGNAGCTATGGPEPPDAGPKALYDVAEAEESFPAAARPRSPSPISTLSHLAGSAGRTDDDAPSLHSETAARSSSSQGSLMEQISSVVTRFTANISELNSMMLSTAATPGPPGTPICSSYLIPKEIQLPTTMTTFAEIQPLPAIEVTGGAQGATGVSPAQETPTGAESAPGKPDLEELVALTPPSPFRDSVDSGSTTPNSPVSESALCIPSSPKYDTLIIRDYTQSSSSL

Chain of Metabotropic glutamate receptor 5 (P31424 whole entry): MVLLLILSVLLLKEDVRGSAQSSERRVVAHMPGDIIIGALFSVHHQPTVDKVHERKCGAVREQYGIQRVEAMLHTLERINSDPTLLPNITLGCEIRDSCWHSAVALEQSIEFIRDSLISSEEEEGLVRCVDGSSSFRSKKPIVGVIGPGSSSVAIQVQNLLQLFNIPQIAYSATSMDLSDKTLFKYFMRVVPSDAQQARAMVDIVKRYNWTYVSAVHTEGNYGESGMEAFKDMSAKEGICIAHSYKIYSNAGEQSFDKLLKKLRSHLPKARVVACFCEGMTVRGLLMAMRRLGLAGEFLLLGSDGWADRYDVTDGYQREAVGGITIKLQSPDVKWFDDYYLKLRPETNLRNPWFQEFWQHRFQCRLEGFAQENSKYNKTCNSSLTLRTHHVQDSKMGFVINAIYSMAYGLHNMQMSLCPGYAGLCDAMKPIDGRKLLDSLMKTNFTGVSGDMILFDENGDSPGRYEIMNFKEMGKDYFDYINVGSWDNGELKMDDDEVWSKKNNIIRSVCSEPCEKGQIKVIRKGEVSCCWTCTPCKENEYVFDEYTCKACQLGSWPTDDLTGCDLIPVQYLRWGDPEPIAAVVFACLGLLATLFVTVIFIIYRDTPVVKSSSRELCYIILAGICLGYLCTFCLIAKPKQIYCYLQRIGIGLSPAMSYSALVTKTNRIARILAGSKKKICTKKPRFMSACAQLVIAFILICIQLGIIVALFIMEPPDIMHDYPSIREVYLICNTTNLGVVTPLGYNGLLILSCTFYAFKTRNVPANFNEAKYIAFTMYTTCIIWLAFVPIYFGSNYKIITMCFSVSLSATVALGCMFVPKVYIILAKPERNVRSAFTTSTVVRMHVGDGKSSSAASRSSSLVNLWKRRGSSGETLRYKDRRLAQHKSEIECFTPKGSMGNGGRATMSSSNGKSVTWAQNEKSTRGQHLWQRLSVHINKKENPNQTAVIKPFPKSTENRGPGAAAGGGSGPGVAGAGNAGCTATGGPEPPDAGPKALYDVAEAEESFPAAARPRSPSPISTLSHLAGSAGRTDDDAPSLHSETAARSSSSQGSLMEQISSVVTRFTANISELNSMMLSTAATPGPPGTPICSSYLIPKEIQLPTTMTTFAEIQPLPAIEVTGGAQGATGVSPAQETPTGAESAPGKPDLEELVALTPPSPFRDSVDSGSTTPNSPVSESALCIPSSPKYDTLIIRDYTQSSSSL

| IC50 [1] [µM] | %max [2] [%] | Compound |
| --- | --- | --- |
| > 30 | – | O=C(Nc1cncc(Oc2cncc(F)c2)n1)c1cccc(Cl)c1F |
| > 30 | – | O=C(Nc1cncc(Oc2cncc(F)c2)n1)c1cccnc1 |
| – | -5.6 | COc1cccc(C(=O)Nc2cncc(Oc3cncc(F)c3)n2)c1 |
| > 30 | – | O=C(Nc1cncc(Oc2cncc(F)c2)n1)c1cccnn1 |
| > 10 | 40 | O=C(Nc1cncc(Oc2cncc(F)c2)n1)c1nccs1 |
| > 30 | – | COc1cc(OC)cc(C(=O)Nc2cncc(Oc3cncc(F)c3)n2)c1 |
| > 10 | 52 | CN(C)c1cccc(C(=O)Nc2cncc(Oc3cncc(F)c3)n2)c1 |
| 0.99 | 1.1 | Cc1cc(C(=O)Nc2cncc(Oc3cncc(F)c3)n2)cs1 |
| 0.311 | 1.7 | Cc1ccnc(C(=O)Nc2cncc(Oc3cncc(F)c3)n2)c1 |
| > 30 | – | Cc1ccc(C(=O)Nc2cncc(Oc3cncnc3)n2)s1 |
| 0.199 | 2.1 | Cc1cccc(C(=O)Nc2cncc(Oc3cncc(F)c3)n2)c1 |
| 4.59 | -2.8 | O=C(Nc1cncc(Oc2cncc(F)c2)n1)c1ccc(F)c(Cl)c1 |
| > 30 | – | O=C(Nc1cncc(Oc2cncc(F)c2)n1)c1cncs1 |
| > 30 | – | Cc1cccc(C(=O)Nc2cncc(Oc3cncc(F)c3)n2)n1 |
| 0.193 | 2.1 | Cc1ccnc(C(=O)Nc2cncc(Oc3cncnc3)n2)c1 |
| > 30 | – | O=C(Nc1cncc(Oc2cncc(F)c2)n1)c1cccc(Cl)n1 |
| 0.1 | 2.3 | O=C(Nc1cncc(Oc2cncnc2)n1)c1cc(Br)ccn1 |
| – | 6.6 | Cc1cc(C)cc(C(=O)Nc2cncc(Oc3cncc(F)c3)n2)c1 |
| – | 0.1 | O=C(Nc1cncc(Oc2cncc(F)c2)n1)c1ccsc1 |
| 8.43 | 22 | O=C(Nc1cncc(Oc2cncc(F)c2)n1)c1cscn1 |
| 6.37 | 7.8 | O=C(Nc1cncc(Oc2cncc(F)c2)n1)c1cccs1 |
| > 30 | – | O=C(Nc1cncc(Oc2cncc(F)c2)n1)c1ccncn1 |

From ChEMBL document CHEMBL3352741, “Discovery of VU0431316: a negative allosteric modulator of mGlu5 with activity in a mouse model of anxiety” (Bioorg Med Chem Lett, 2014)
